Experimental data: the supplement of paper PMC10307832

Tests used:
Assay in all cases: relative viability (nuclei count vs DMSO), 5 days (fraction); higher = more cells survive
Wnt-C59 + Crizotinib = compound: CC1=NC=CC(=C1)C2=CC=C(C=C2)CC(=O)NC3=CC=C(C=C3)C4=CN=CC=C4 [Wnt-C59] + C[C@@H](Oc1cc(-c2cnn(C3CCNCC3)c2)cnc1N)c1c(Cl)ccc(F)c1Cl [Crizotinib] (partner 1 µM)
Procedure, shortened: (§1)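 Nuclei were stained with Hoechst during a one-step fixation (final 0.05% Triton X-100, 1% formaldehyde, 1 ug/ml Hoechst) carried out 5 days after dosing, then counted on 4× images. The cells, lung cancer lines in 1536-well plates, had been dosed by pin tool the day after seeding with one drug alone or a fixed anchor-drug dose plus five library-drug doses (not always all listed) in √10 steps. Relative viability is the nuclei count in treated wells divided by that in vehicle wells, and each value is the median of duplicate plates.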

Wnt-C59 + Pictilisib = compound: CC1=NC=CC(=C1)C2=CC=C(C=C2)CC(=O)NC3=CC=C(C=C3)C4=CN=CC=C4 [Wnt-C59] + CS(=O)(=O)N1CCN(Cc2cc3nc(-c4cccc5[nH]ncc45)nc(N4CCOCC4)c3s2)CC1 [Pictilisib] (partner 1 µM)
Procedure, shortened: as §1

Wnt-C59 + Pemetrexed = compound: CC1=NC=CC(=C1)C2=CC=C(C=C2)CC(=O)NC3=CC=C(C=C3)C4=CN=CC=C4 [Wnt-C59] + Nc1nc2[nH]cc(CCc3ccc(C(=O)N[C@@H](CCC(=O)O)C(=O)O)cc3)c2c(=O)[nH]1 [Pemetrexed] (partner 0.2 µM)
Procedure, shortened: as §1

Wnt-C59 + Luminespib = compound: CC1=NC=CC(=C1)C2=CC=C(C=C2)CC(=O)NC3=CC=C(C=C3)C4=CN=CC=C4 [Wnt-C59] + CCNC(=O)c1noc(-c2cc(C(C)C)c(O)cc2O)c1-c1ccc(CN2CCOCC2)cc1 [Luminespib] (partner 0.01 µM)
Procedure, shortened: as §1

Cell Line	relative viability (Wnt-C59 + Crizotinib; first compound 0.001 µM)	relative viability (Wnt-C59 + Crizotinib; first compound 0.01 µM)	relative viability (Wnt-C59 + Crizotinib; first compound 0.03162 µM)	relative viability (Wnt-C59 + Crizotinib; first compound 0.1 µM)	relative viability (Wnt-C59 + Pictilisib; first compound 0.001 µM)	relative viability (Wnt-C59 + Pictilisib; first compound 0.01 µM)	relative viability (Wnt-C59 + Pictilisib; first compound 0.03162 µM)	relative viability (Wnt-C59 + Pictilisib; first compound 0.1 µM)	relative viability (Wnt-C59 + Pemetrexed; first compound 0.001 µM)	relative viability (Wnt-C59 + Pemetrexed; first compound 0.01 µM)	relative viability (Wnt-C59 + Pemetrexed; first compound 0.03162 µM)	relative viability (Wnt-C59 + Pemetrexed; first compound 0.1 µM)	relative viability (Wnt-C59 + Luminespib; first compound 0.001 µM)	relative viability (Wnt-C59 + Luminespib; first compound 0.01 µM)	relative viability (Wnt-C59 + Luminespib; first compound 0.03162 µM)	relative viability (Wnt-C59 + Luminespib; first compound 0.1 µM)
Calu-6	0.787	0.779	0.883	0.825	0.856	0.973	0.998	0.873	–	–	–	–	–	–	–	–
HCC-366	0.45	0.541	0.605	0.472	0.113	0.138	0.149	0.155	0.164	0.16	0.163	0.155	–	–	–	–
NCI-H2405	0.833	0.806	0.812	0.779	0.433	–	0.406	0.432	1.02	1.01	0.989	1.08	0.762	0.809	0.7	0.842
NCI-H1648	–	–	–	–	–	–	–	–	0.615	0.922	0.81	0.66	–	–	–	–
LCLC-97TM1	0.292	0.344	0.545	0.283	0.23	0.231	0.211	0.187	0.169	0.181	0.18	0.183	0.756	0.763	0.616	0.742
EPLC-272H	0.955	0.8	0.874	0.53	0.366	0.265	0.343	0.338	0.38	0.354	0.318	0.315	0.309	0.519	0.389	0.302
NCI-H1755	0.899	0.826	0.827	0.839	0.374	0.433	0.459	0.433	0.421	0.407	0.419	0.402	0.549	0.534	0.407	0.644
NCI-H1437	0.996	0.867	0.988	0.89	0.531	0.617	0.467	0.479	0.36	0.299	0.31	0.331	1.21	1.07	1.17	1.05
PC-3 [JPC-3]	0.979	1.01	1.09	0.965	0.832	0.765	0.822	0.72	1.11	1.24	1.04	1.47	0.782	0.817	0.913	0.696
NCI-H727	0.843	0.779	0.944	0.682	0.381	0.342	0.43	0.309	–	–	–	–	0.332	–	0.857	0.526
NCI-H1666	0.989	1.05	0.902	1.1	0.43	0.218	0.479	0.477	0.865	0.799	0.828	0.869	1.05	1.04	1.04	1.03
NCI-H1792	0.914	1.02	1.04	1.06	0.273	0.25	0.225	0.332	0.723	0.714	0.777	1.18	0.515	0.388	–	0.656
